From US7132504B2, “Hepatitis C virus inhibitors” (Bristol-Myers Squibb Company, priority 2003, dated 2006)
Like-named read-outs stand apart in the source and are kept apart here.

What was measured:
[1] = system: HCV replicon in Huh7 cells; test: HCV replicon cell-based assay (FRET); parameters: species or system HCV strain 1b; settings: Hepatitis C virus
Excerpt: An HCV replicon whole cell system was established as described by Lohmann V, Korner F, Koch J, Herian U, Theilmann L, Bartenschlager R., Science 285(5424):110–3 (1999). This system enabled us to evaluate the effects of our HCV Protease compounds on HCV RNA replication. Briefly, using the HCV strain 1b sequence described in the Lohmann paper (Assession number:AJ238799), an HCV cDNA was generated encoding the 5′ internal ribosome entry site (IRES), the neomycin resistance gene, the EMCV (encephalomyocarditis viurs)-IRES and the HCV nonstructural proteins, NS3–NS5B, and 3′ non-translated region (NTR). In vitro transcripts of the cDNA were transfected into the human hepatoma cell line, Huh7. […] Resulting cell lines were characterized for positive and negative strand RNA production and protein production over time.
Huh7 cells, constitutively expressing the HCV replicon, were grown in Dulbecco's Modified Eagle Media (DMEM) containing 10% Fetal calf serum (FCS) and 1 mg/ml G418 (Gibco-BRL). Cells were seeded the night before (1.5×10^4 cells/well) in 96-well tissue-culture sterile plates. Compound and no compound controls were prepared in DMEM containing 4% FCS, 1:100 Penicillin/Streptomysin, 1:100 L-glutamine and 5% DMSO in the dilution plate (0.5% DMSO final concentration in the assay). Compound/DMSO mixes were added to the cells and incubated for 4 days at 37° C. After 4 days, plates were rinsed thoroughly with Phosphate-Buffered Saline (PBS) (3 times 150 μl). The cells were lysed with 25 μl of a lysis assay reagent containing the FRET peptide (RET S1, as described for the in vitro enzyme assay). The lysis assay reagent was made from 5× cell Luciferase cell culture lysis reagent (Promega #E153A) diluted to 1× with distilled water, NaCl added to 150 mM final, the FRET peptide diluted to 10 μM final from a 2 mM stock in 100% DMSO. The plate was then placed into the Cytofluor 4000 instrument which had been set to 340 nm excitation/490 nm emission, automatic mode for 21 cycles and the plate read in a kinetic mode. EC50 determinations were carried out as described for the IC50 determinations. […]
The percentage inhibition was calculated using the formula below: […]
The values were graphed and analyzed using XLFit to obtain the EC50 value.

human liver cathepsin B = molecular target: T1, human liver cathepsin B (Homo sapiens, UniProt P07858); test: Specificity assay, cathepsin B; assay type: biochemical; settings: assay interference at higher concentrations
T1 construct: purchased Sigma; host or cells: human liver
Description: (§1) The specificities of compounds of the present invention were determined against a variety of serine proteases: human neutrophil elastase (HNE), porcine pancreatic elastase (PPE) and human pancreatic chymotrypsin and one cysteine protease: human liver cathepsin B. In all cases a 96-well plate format protocol using colorimetric p-nitroaniline (pNA) substrate specific for each enzyme was used as described previously (PCT Patent Application No. WO 00/09543) with some modifications to the serine protease assays. All enzymes were purchased from Sigma while the substrates were from Bachem.
(§2) Each assay included a 2 h enzyme-inhibitor pre-incubation at room temperature followed by addition of substrate and hydrolysis to ˜30% conversion as measured on a Spectramax Pro microplate reader. Compound concentrations varied from 100 to 0.4 μM depending on their potency. […]
(§3) The percentage of inhibition was calculated using the formula: [1−((UVinh−UVblank)/(UVctl−UVblank))]×100 […]

[2] = system: human pancreatic chymotrypsin; test: Specificity assay, chymotrypsin; assay type: biochemical; settings: 2 h enzyme-inhibitor pre-incubation
Description: as §1, §2, §3

Compound: C=CC1C[C@]1(NC(=O)[C@@H]1C[C@@H](Oc2cc(-c3ccccc3)nc3cc(OC)ccc23)CN1C(=O)[C@@H](NC(=O)OC)C(C)(C)C)C(=O)NS(=O)(=O)N(C)Cc1ccccc1 (stereo partly shown) [Compound 9]
- EC50 ([1]; Huh-7, 96 h, 4 days, read-out: Activity Range EC50): 150 to 1500 nM
- EC50 ([1]; Huh-7, read-out: EC50 value in the replicon assay): 403 nM
- IC50 (human liver cathepsin B): > 50000 nM
- IC50 [2]: > 200000 nM
